Assay results from US4552893A, “Leukotriene antagonists” (SmithKline Beckman Corporation, priority 1983, dated 1985).

Molecular target: T1, leukotriene induced contraction of guinea pig tracheal tissues (LTD4) (Cavia porcellus, UniProt Q2NNR5)
T1 construct: Guinea pig (adult male albino Hartley strain) tracheal spiral strips; from tissue; host or cells: guinea pig (adult male albino Hartley strain) tracheal spiral strips
T1 sequence (Q2NNR5 1-340): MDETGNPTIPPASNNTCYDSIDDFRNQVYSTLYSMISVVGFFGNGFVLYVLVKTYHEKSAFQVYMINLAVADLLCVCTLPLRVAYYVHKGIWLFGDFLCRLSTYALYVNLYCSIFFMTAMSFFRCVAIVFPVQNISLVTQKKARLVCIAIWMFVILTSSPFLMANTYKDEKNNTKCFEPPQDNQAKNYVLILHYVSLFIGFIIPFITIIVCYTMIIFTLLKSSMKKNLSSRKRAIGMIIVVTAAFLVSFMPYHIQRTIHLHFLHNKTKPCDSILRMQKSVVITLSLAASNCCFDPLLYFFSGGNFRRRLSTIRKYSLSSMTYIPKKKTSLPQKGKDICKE
Test: Inhibition of LTD4-induced contraction of guinea pig tracheal spiral strips in vitro (leukotriene antagonist activity)
Type: cell-based
Details: LTD4 cumulative concentration-response, 30 min pretreatment with test compound, meclofenamic acid 1 μM, pA2 = -log KB from EC30 (30% of carbachol contraction)
Description: The leukotriene antagonist activity of the compounds of this invention is measured by the ability of the compound to inhibit leukotriene induced contraction of guinea pig tracheal tissues in vitro. The following methodology was employed:
In vitro: Guinea pig (adult male albino Hartley strain) tracheal spiral strips of approximate dimensions 2 to 3 mm cross-sectional width and 3.5 cm length were bathed in modified Krebs buffer in jacketed 10 ml tissue bath and continously aerated with 95% O2 /5% CO2. The tissues were connected via silk suture to force displacement transducers for recording isometric tension. The tissues were equilibrated for 1 hr., pretreated for 15 minutes with meclofenamic acid (1 μM) to remove intrinsic prostaglandin responses, and then pretreated for an additional 30 minutes with either the test compound or vehicle control. A cumulative concentration-response curve for LTD4 on triplicate tissues was generated by successive increases in the bath concentration of the LTD4. […]
Calculations: The averages of the triplicate LTD4 concentration-response curves both in the presence and absence of the test compound were plotted on log graph paper. The concentration of LTD4 needed to elicit 30% of the contraction elicited by carbachol was measured and defined as the EC30. The pA2 value for the test compound was determined by the following equations: [formula] […]

CCCCCCCCCCCC/C=C\C(SCCC(=O)O)C(O)CO (stereo not shown) [3-[(2-Carboxyethyl)thio]-4(Z)-heptadecen-1,2-diol]
Kb: 6.31 µM
